Values joined by “and” are separate entries in the source; they are usually repeats but may differ in a detail not shown here. Equal values may be shown once.
Assays:
[1] = system: HT-29 (colon adenocarcinoma); test: MTT cell viability assay, HT-29; type: cell-based; conditions: Homo sapiens, HT-29, 48 h, 2 days incubation, average ±SD of three experiments
Outline: (§1)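 Cells seeded at 3 × 10^3 (A549, HEK-293) or 5 × 10^3 (HT-29, MCF-7) per well and exposed to serial compound dilutions for 2 days at 37 °C, 5% CO2. MTT added for 3 h, formazan dissolved in DMSO, absorbance at 550 nm; viability relative to untreated cells, IC50 from three independent experiments.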

[2] = system: MCF-7 (breast adenocarcinoma); test: MTT cell viability assay, MCF-7; type: cell-based; conditions: Homo sapiens, MCF7, 48 h, 2 days incubation, average ±SD of three experiments
Outline: as §1

[3] = system: HEK-293 (human embryonic kidney cells); test: MTT cell viability assay, HEK-293; type: cell-based; conditions: HEK293, 48 h, 2 days incubation, non-tumor cell line, average ±SD of three experiments
Outline: as §1

[4] = target: T1, membrane VEGFR-2 (mVEGFR-2) (Homo sapiens, UniProt P35968); test: Membrane VEGFR-2 relative quantification by flow cytometry; type: cell-based; conditions: for mVEGFR-2 relative detection, A-549 / mVEGFR-2 relative detection, HT-29 / mVEGFR-2 relative detection, MCF-7: 24 h, 100 or 10 μM (Table 7), sorafenib 10 μM, percentage referred to DMSO control; for Inhibition of membrane VEGFR-2, HT-29: with respect to untreated cells
T1 construct: endogenous in cells; host or cells: HT-29, A-549, MCF-7
T1 sequence (P35968 20-1356): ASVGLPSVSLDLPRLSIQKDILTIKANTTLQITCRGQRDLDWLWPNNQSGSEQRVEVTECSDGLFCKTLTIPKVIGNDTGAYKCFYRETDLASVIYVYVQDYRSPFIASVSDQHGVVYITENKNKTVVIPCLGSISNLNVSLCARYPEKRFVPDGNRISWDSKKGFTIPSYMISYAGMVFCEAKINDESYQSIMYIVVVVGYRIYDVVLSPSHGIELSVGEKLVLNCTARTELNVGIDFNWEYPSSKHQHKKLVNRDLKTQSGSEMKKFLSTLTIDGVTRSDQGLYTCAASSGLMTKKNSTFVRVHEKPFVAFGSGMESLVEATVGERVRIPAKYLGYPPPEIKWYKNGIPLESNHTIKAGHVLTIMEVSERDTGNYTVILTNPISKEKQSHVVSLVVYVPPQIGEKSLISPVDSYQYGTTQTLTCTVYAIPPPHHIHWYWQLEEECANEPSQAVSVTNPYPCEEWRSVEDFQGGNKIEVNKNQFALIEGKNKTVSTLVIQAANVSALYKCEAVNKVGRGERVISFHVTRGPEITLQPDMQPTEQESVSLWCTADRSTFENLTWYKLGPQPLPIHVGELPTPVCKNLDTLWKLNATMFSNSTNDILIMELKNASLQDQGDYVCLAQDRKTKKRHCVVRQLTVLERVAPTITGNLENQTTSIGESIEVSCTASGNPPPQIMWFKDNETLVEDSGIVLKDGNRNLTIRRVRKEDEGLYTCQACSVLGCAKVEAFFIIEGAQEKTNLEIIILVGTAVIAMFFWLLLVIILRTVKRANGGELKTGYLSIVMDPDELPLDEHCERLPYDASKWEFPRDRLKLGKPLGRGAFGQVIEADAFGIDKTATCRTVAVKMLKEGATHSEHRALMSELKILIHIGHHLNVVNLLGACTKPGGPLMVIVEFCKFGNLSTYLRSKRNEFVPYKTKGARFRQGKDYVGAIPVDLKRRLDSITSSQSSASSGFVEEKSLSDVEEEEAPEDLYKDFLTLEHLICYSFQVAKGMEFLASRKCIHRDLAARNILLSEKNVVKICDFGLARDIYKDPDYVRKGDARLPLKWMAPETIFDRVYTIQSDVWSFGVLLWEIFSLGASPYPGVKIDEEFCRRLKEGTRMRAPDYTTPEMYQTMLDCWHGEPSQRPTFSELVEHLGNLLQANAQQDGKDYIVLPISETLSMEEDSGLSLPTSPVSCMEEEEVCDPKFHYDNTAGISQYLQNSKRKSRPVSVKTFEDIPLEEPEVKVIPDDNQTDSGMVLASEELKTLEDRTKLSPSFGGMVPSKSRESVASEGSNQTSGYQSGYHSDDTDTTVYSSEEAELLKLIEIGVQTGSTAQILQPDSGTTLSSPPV
Description: The presence of both targets in the membrane was relatively determined by using DMSO-treated cells as a negative control.
For the assay, 10^5 cells per well were incubated for 24 h with the corresponding dose of the tested compound in a total volume of 500 μL of their growth media.

total PD-L1 (tPD-L1) = target: T2, total PD-L1 (tPD-L1) (Homo sapiens, UniProt Q9NZQ7); test: Total PD-L1 relative quantification by flow cytometry; type: cell-based; conditions: for tPD-L1 relative detection, A-549 / tPD-L1 relative detection, HT-29 / tPD-L1 relative detection, MCF-7: 24 h, 100 or 10 μM (Table 7), relative to DMSO control
T2 construct: endogenous in cells; host or cells: HT-29, A-549, MCF-7
T2 sequence (Q9NZQ7 19-290): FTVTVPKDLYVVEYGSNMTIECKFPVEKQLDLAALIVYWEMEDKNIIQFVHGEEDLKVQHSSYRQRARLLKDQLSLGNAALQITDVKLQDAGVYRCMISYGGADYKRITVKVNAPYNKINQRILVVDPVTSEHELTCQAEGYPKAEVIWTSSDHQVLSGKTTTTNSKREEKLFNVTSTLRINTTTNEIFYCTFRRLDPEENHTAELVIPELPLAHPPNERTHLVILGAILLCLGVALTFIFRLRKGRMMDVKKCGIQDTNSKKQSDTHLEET

VEGFR-2 kinase activity = test: ADP assay of kinase activity in HT-29 cells; type: cell-based, human; conditions: 100 μM, 24 h; DMSO as negative control
Description: Finally, to assess the VEGFR-2 inhibitory activity of the selected compounds, namely 21, 22, and 23, we performed an ADP assay. This is a very useful technique that measures kinase activity by monitoring ADP accumulation in cell cultures instead of ATP concentrations.
For the assay, we used HT-29 cells that were previously treated with a 100 μM concentration of 21, 22, and 23, and we used DMSO as a negative control.
The kinase inhibitory activity of the selected compounds was studied as follows: first 10^5 HT-29 cells were seeded on a 12 well-plate, and then they were treated with 100 μM of the selected compounds for 24 h. Afterward, cells were collected, and the kinase activity was determined from collected pellets by following the manufacturer’s instructions indicated in the ADP Colorimetric Assay Kit II (Abcam S.A. reference ab282932).

HMEC-1 cells = test: Tube disruption on Matrigel (antivascular activity); type: cell-based; conditions: 100 μM added to 24 h networks, observed after another 24 h
Description: The antivascular and antiangiogenic activities of the selected compounds, namely 21, 22, and 23, were settled by 3D Matrigel cell cultures. First, we studied the effect on a microvessel network from HMEC-1 cells. HMEC-1 cells were on Matrigel, and after 24 h, when organized capillary networks were formed, 100 μM of the corresponding compounds, 21–23, was added. After another 24 h, we compared the treated networks with the one that received no treatment (see Figure 5a–c).
Wells of a IBIDI 15-well μ-plate for angiogenesis were coated with 15 μL of Matrigel® (10 mg/mL, BD Biosciences Europe) at 4 °C. After gelatinization at 37 °C for 30 min, HMEC-1 cells were seeded at 2 × 10^4 cells/well in 25 μL of culture medium on top of the Matrigel and were incubated for 30 min at 37 °C while they were attached.
For the tube disruption assay (study of antivascular activity), after 24 h, we checked that the capillary networks were formed on wells, and then 100 μM of compounds was added. After 24 h of treatment, the cultures were observed again, and pictures of each well were taken.

SMILES | IC50 [1] [µM] | IC50 [2] [µM] | IC50 [3] [µM] | mVEGFR-2 relative detection, A-549 [4] [%] | mVEGFR-2 relative detection, HT-29 [4] | mVEGFR-2 relative detection, MCF-7 [4] [%] | tPD-L1 relative detection, A-549 (total PD-L1 (tPD-L1)) [%] | tPD-L1 relative detection, HT-29 (total PD-L1 (tPD-L1)) [%] | tPD-L1 relative detection, MCF-7 (total PD-L1 (tPD-L1)) [%] | Kinase activity measured in HT-29 cell cultures (VEGFR-2 kinase activity) [%] | Antivascular effect on formed HMEC-1 capillary networks (HMEC-1 cells) | melting point [°C] | Inhibition of membrane VEGFR-2, HT-29 [4] [%] | Inhibition of total PD-L1, MCF-7 (total PD-L1 (tPD-L1))
Nc1ccc(-c2cn(Cc3ccccc3Cl)nn2)cc1 [Compound 21, 4-(1-(2-chlorobenzyl)-1H-1,2,3-triazol-4-yl)aniline] | > 100 | 11 ± 2 | > 100 | >100 | 92 ± 5% | >100 | 78 ± 9 | 60 ± 6 | >100 | 46 ± 10 | disturbance of the formed microvasculature-like network | 112 to 115 | – | –
Nc1ccc(-c2cn(Cc3cccc(Cl)c3)nn2)cc1 [Compound 22, 4-(1-(3-chlorobenzyl)-1H-1,2,3-triazol-4-yl)aniline] | > 100 | 8 ± 2 | > 100 | >100 | – | >100 | 75 ± 10 | 52 ± 7 | 69 ± 7 | 33 ± 4 | disturbance of the formed microvasculature-like network | 143 to 144 | ~40 | around 40%
Nc1ccc(-c2cn(Cc3ccc(Cl)cc3)nn2)cc1 [Compound 23, 4-(1-(4-chlorobenzyl)-1H-1,2,3-triazol-4-yl)aniline] | > 100 | 9 ± 6 | > 100 | >100 | 65% and 65 ± 4% | >100 | 81 ± 15 | 52 ± 3 | 61 ± 14 | 31 ± 8 | disturbance of the formed microvasculature-like network | 164 to 166 | ~40 | around 40%

Reference: article PMC9266368, “Synthesis and Biological Evaluation of Small Molecules as Potential Anticancer Multitarget Agents” (International Journal of Molecular Sciences, 2022)
